Data on one compound can be found in patent US20210096127A1, “MEANS AND METHODS FOR MONITORING SCAR DEVELOPMENT” (HELMHOLTZ ZENTRUM MÜNCHEN - DEUTSCHES FORSCHUNGSZENTRUM FÜR …, priority 2018, published 2021).

Molecules are shown by their SMILES. Counter-ions that a name gives are not always drawn.

The test system of one assay is SCAD. Put plainly: Chemical screening with the SCAD (Scar-in-a-Dish) assay. The assay is classed as cell-based, mice. The settings on record: 2.5 μM final concentration. The source says:
Dorsal skins were collected from C57BL/6J or En1^Cre;R26^mTmG or En1^e;R26^VT2/GK3 mice at different ages as indicated, and washed twice with cold DMEM/F12 (Thermo Fisher Scientific 11320074) medium to remove contaminating blood, and washed once with Hank's Balanced Salt Solution (HBSS, Thermo Fisher Scientific 14175095). After careful removal of non-skin tissue at the ventral side with a surgical scalpel, round full-thickness skin pieces were created with disposable Ø 2 mm biopsy punch (Stiefel 270130), and cultured in 300 μl of DMEM/F12 medium containing 10% FBS, 1× GlutaMAX (Thermo Fisher Scientific 35050038), 1× Penicillin/streptomycin (Thermo Fisher Scientific 15140122), and 1× MEM non-essential amino acids (Thermo Fisher Scientific 11140035) in each well of 96-well plates in a humidified 37° C., 5% CO2 incubator. (Note: the 2 mm skin pieces were cultured in medium but not floating at the liquid air surface). Fresh medium was supplied every second day and the skin tissues were harvested at the indicated time points (day 1 to day 5 after culture), with the fresh tissues serving as day 0 control, and fixed in 2% PFA for overnight at 4° C.
D0 SCADs (see Example 2) were first treated with Nefopam from Prestwick chemical library (FDA approved library). The initial concentration of the chemical in library format is 1 mM, dissolved in DMSO. The final concentration of chemical used in FDA-library is 2.5 μM.
All chemicals in the library are the same (1 mM), and they are added by a robot, eg. 0.5 μl chemical per well of 200 μl culture to make 2.5 μM final concentration. SCAD biopsies were prepared in 96-well plate with 200 μl per well, the automated system was used to add the chemical Nefopam.
All the data were compiled on excel sheets and scores were added based on the visual variability observed when compared to the DMSO and media control D5 SCADs.
The chemical Nefopam was selected (see Example 7) and further analyzed on SCAD (see Example 2). The treatment was done in triplicates.

The subject of the next assay is scar formation. As to conditions: stated as known; inhibitor of scar development; cited from earlier work.

In the case of `CN1CCOC(c2ccccc2)c2ccccc2C1` (stereo not shown) [Prestw-229, Nefopam hydrochloride], the “collagen formation in SCAD sections” value in the assay with SCAD (D5 SCAD sections, compared to control SCAD) is “significantly less”. Besides, the “scar formation in the whole-mount image” value with SCAD (D5 SCAD, 96-well plate, triplicates, compared to control (media treated) SCAD) is recorded as “visually less scar formation”. Further, the scar development entry in the assay on SCAD (D5 SCAD, FIG. 7) is recorded as “visible reduction of scar development”. For the same compound, in the assay with scar formation, the “scar formation (known effect, positive control)” value is “known to reduce scar formation”.
